Read-outs that look alike come from different tables or passages of the source.
Columns and labels:
CtpH-LBD [1] = target: T1, CtpH-LBD (Pseudomonas aeruginosa, UniProt G3XDA3); experiment: biochemical; type: binding; settings: for binding: titrated with 5 mM ligand
PstS = PstS (Pseudomonas aeruginosa, UniProt G3XDA8); experiment: biochemical; type: binding; settings: for ΔH: 25 °C, unfolded/refolded PstS, 10 mM Tris/HCl pH 8.0
CtpL-LBD = CtpL-LBD (Pseudomonas aeruginosa, UniProt Q9HUW6); settings: ITC
Experimental: E. coli BL21 (DE3) containing the expression plasmids were cultured in LB medium supplemented with 50 μg ml^−1 kanamycin at 30 °C until an OD660 of 0.6, at which point 0.1 mM IPTG was added. […] Pellets were resuspended in buffer A (30 mM Tris, 300 mM NaCl, 10 mM imidazole, 5% (v/v) glycerol, pH 7.0) and broken by French press at 1000 psi. […] Protein was diluted to 10 μM and refolded by two consecutive dialyses into 10 mM Tris/HCl, pH 8.0. Aggregated protein corresponding to misfolded species was removed by filtration using 0.22 μm cut-off filters.
The mean enthalpies from the injection of ligands into buffer were subtracted from titration data prior to analysis with the “One binding site model” of ORIGIN following the algorithm described in[51].

CtpH-LBD [2] = target: T1, CtpH-LBD; settings: CtpH-LBD (51 μM) saturated with 5 mM Pi
CtpH-LBD [3] = target: T1, CtpH-LBD; settings: sedimentation velocity and equilibrium, with and without Pi
P. aeruginosa PAO1 [4] = tested on: P. aeruginosa PAO1
P. aeruginosa PAO1 [5] = settings: cited from earlier work
G3XDA3 [6] = experiment: AUC; sedimentation velocity of CtpH-LBD in the presence of 500 uM Pi; 45,000 rpm, 6 °C, polybuffer
G3XDA3 [7] = experiment: AUC; sedimentation equilibrium of CtpH-LBD in the presence of Pi; 11,800, 18,100 and 31,000 rpm, 6 °C, polybuffer
[8] = target: T2, PstS (PA5369), periplasmic phosphate-binding protein, recombinant (P. aeruginosa, UniProt G3XDA8 25-323); experiment: AUC; sedimentation velocity, 45,000 rpm, 6 °C, polybuffer; CtpL-LBD and PstS individually and as a mixture; c(s) method; settings: both partners purified
T2 construct: also called Pi-loaded PstS; source: E. coli BL21 (DE3), overexpressed, purified (HisTrap)
T2 sequence: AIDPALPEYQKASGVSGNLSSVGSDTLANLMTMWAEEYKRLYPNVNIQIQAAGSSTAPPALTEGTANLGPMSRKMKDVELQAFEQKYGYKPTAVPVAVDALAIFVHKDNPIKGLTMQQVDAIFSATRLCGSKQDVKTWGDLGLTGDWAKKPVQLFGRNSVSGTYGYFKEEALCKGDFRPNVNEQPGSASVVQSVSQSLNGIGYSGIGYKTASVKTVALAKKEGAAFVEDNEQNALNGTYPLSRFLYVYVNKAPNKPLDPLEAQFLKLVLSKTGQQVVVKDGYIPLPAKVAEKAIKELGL

[9] = target: T2, PstS (PA5369), periplasmic …; experiment: ITC; 5 uM Pi-loaded PstS in the cell titrated with 80 uM CtpL-LBD; 25 °C; one binding site model; means of three experiments; settings: both partners purified

Molecule: O=CC(O)COP(=O)(O)O (racemic) [DL-glyceraldehyde 3-phosphate]
- KD (CtpH-LBD [1]; pH 7): No binding

Molecule: O=C(O)[C@H](O)[C@@H](O)[C@H](O)[C@H](O)COP(=O)(O)O [6-phosphogluconate]
- KD (CtpH-LBD [1]; pH 7): No binding

Molecule: Nc1ncnc2c1ncn2[C@@H]1O[C@H](COP(=O)(O)OP(=O)(O)O)[C@@H](O)[C@H]1O [ADP]
- Kd (CtpH-LBD [1]): 103000 ± 21000 nM
- ΔH (CtpH-LBD [1]; pH 7): -2.7 ± 1 kcal/mol

Molecule: Nc1ncnc2c1ncn2[C@@H]1O[C@H](COP(=O)(O)O)[C@@H](O)[C@H]1O [AMP]
- KD (CtpH-LBD [1]; pH 7): No binding

Molecule: Nc1ncnc2c1ncn2[C@@H]1O[C@H](COP(=O)(O)OP(=O)(O)OP(=O)(O)O)[C@@H](O)[C@H]1O [ATP]
- KD (CtpH-LBD [1]; pH 7): Binding ^1
- Kd (PstS): 300 ± 100 nM
- ΔH (PstS; ITC): -2.9 ± 0.1 kcal/mol

Molecule: O=C(CO)[C@@H](O)[C@H](O)[C@H](O)COP(=O)(O)O [D-fructose 6-phosphate]
- KD (CtpH-LBD [1]; pH 7): No binding

Molecule: O=C[C@H](O)[C@@H](O)[C@H](O)[C@H](O)COP(=O)(O)O [D-glucose 6-phosphate]
- KD (CtpH-LBD [1]; pH 7): No binding

Molecule: O=P(O)(O)O [Pi, K2HPO4]
- Kd (PstS): 7 ± 1 nM
- ΔH (PstS; ITC): -5.1 ± 0.1 kcal/mol
- binding (PstS; ITC, PstS as purified from E. coli, before unfolding/refolding): no binding
- TΔS (PstS; ITC, refolded PstS): 6.0 ± 0.1 kcal/mol
- n-value (PstS; ITC, refolded PstS): 0.29 ± 0.02
- binding (CtpL-LBD; CtpL-LBD denatured, dialyzed and refolded): did not show any Pi binding
- KD (CtpL-LBD; conducted at different temperatures): No binding
- ΔH of unfolding (CtpH-LBD [2]; without Pi 28.2 kcal/mol): 39.9 + /−1.5 kcal/mol
- Tm (CtpH-LBD [2]; without Pi 46.9 °C): 56.6 + /−0.2 °C
- effect on oligomeric state of CtpH-LBD (CtpH-LBD [3]): causes CtpH-LBD dimerization
- chemotaxis (P. aeruginosa PAO1 [4]; ctpH mutant, 0.01 mM Pi): no significant changes
- chemotaxis (P. aeruginosa PAO1 [4]; ctpH mutant, 0.1 and 10 mM Pi): compromised chemotaxis
- chemotaxis (P. aeruginosa PAO1 [4]; pstS deletion mutant, low Pi (0.01 and 0.1 mM)): dramatically reduced chemotaxis
- chemotaxis (P. aeruginosa PAO1 [4]; pstS mutant, high Pi (10 mM)): did not greatly affect chemotaxis
- chemotaxis (P. aeruginosa PAO1 [4]; pstS/ctpH double mutant): only very marginal Pi chemotaxis

Molecule: O=[As](O)(O)O [arsenate]
- KD (CtpH-LBD [1]; ITC, 25 °C, polybuffer pH 7.0): No binding
- binding (CtpH-LBD [1]; ITC): did not bind
- chemotaxis (P. aeruginosa PAO1 [5]; Pi starved cells): attracted to arsenate

Molecule: O=[As][O-].[Na+] [arsenite]
- KD (CtpH-LBD [1]; ITC, 25 °C, polybuffer pH 7.0): No binding
- binding (CtpH-LBD [1]; ITC): did not bind

Molecule: C=C(OP(=O)(O)O)C(=O)O [phosphoenolpyruvate]
- KD (CtpH-LBD [1]; pH 7): No binding

Molecule: O=P(O)(O)OP(=O)(O)O [pyrophosphate]
- Kd (PstS): 2600 ± 300 nM
- ΔH (PstS; ITC): -8.3 ± 0.3 kcal/mol
- chemotaxis (P. aeruginosa PAO1 [5]; P. aeruginosa): chemotaxis towards millimolar concentrations of pyrophosphate

B1: ligand binding domain of the chemoreceptor CtpH (CtpH-LBD) (protein)
chain: GSLTGDVRAYRELLGGPVRAAQLIDEANLQFRGQVQEWKNVLLRGRQTEAQTKYWSQFEAQERAVQDILGRLGSVAEGELKDRVERLREEHRRLGTAYRQGRQRFLEAGADPIAGDQAVTGIDRATTAQMQTLRDELHQASDLHSSSISAEARRT
- N with Pi (G3XDA3 [6]): dimer (39,566 Da)
- N with Pi (minor species) (G3XDA3 [6]): tetramer (79,132 Da)
- percent of the sedimenting material in the dimer peak, with Pi (G3XDA3 [6]): 86% of the sedimentation material
- N with Pi (G3XDA3 [7]): 2

B2: ligand binding domain of the chemoreceptor CtpL (CtpL-LBD) (domain or fragment, P. aeruginosa, UniProt Q9HUW6 27-324, looked up)
chain: WSQRAMERPFQLLDQYLELSQRFDEQVARNIRQYLGSGDAVRQQAALQALESLAEALPELPPDLARTLAPSLAELREFSAGDLLAAGKLAGDPQGLLLQAERDLTGNLEQWSAYLDAAAGQPQAGAYRTPLLLASLHLTRLSLARAKLVESANPALAGDVERELANLREQAGRIEALPLLGVLDEQRSASDDFAAMMGLAGDAEAGAGNAEDRGVALRRELASLLQRYPDELRRTRDLIERRQQLSADTGARLDAVRQALATLEPQVRGERQRLQGQVRLIQGGMIALILLIALAIDS
notes: Cloned into pET28b(+); Held on a HisTrap column as bait in the pull-down; The discussion gives 286 amino acids for CtpL-LBD, whereas 27-324 is 298 residues; also called PA4844; source: E. coli BL21 (DE3), purified (HisTrap) from the soluble fraction
- stoichiometry N [8]: 1
- dH [9]: -3.1 kcal/mol

Source: PMC4926252 (Scientific Reports, 2016)
